Target: T1, ZIKV RdRp (ZIKV NS5 RdRp domain) (Zika virus, UniProt A0A0X1LH65)
T1 construct: RdRp domain residues 275-903 of NS5, cut from the genome polyprotein; E. coli BL21(DE3)-pRIL; 75 kDa
Assay: real-time SYTO […] fluorescence polymerization assay
Assay type: biochemical

T1 sequence (A0A0X1LH65 2795-3423): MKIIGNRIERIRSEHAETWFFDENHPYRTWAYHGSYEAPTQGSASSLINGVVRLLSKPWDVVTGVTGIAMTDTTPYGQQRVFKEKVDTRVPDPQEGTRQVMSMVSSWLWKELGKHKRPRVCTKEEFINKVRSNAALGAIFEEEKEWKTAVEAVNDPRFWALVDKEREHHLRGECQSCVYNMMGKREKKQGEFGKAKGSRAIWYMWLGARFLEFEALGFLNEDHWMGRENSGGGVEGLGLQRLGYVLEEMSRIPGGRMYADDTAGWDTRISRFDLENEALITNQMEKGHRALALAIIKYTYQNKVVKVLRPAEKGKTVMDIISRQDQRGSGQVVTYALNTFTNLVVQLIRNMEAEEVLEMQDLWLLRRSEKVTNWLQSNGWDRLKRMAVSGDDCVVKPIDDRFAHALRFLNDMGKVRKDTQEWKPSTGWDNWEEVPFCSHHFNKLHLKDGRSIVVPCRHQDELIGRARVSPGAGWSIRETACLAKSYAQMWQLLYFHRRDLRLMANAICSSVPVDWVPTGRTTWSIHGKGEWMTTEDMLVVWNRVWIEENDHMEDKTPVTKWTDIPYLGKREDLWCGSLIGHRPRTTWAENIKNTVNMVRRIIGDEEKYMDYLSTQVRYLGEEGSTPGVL

| SMILES | IC50 |
| --- | --- |
| Nc1ncnc2c1ncn2[C@@H]1O[C@H](COP(=O)(O)OP(=O)(O)OP(=O)(O)O)C[C@H]1O [cordycepin 5′-triphosphate] | 54 ± 7 µM |
| NC(=O)c1ncn([C@@H]2O[C@H](CO[P@@](=O)(O)O[P@](=O)(O)OP(=O)(O)O)[C@@H](O)[C@H]2O)n1 [ribavirin 5′-triphosphate] | 946 ± 46 µM |
